Test results: US20260216242A1, “ALPP-SPECIFIC VARIANT ANTIGEN BINDING MOLECULES” (ALMAC DISCOVERY LIMITED, priority 2022, published 2026)
pIC50: −log10 of the molar value. “And” between values parts separate entries of the source, which are not always exact repeats. Equal entries are not always repeated. Where two headings read alike, the source gives them in different places. Where a SMILES comes first, the peptide text is derived from it. [ ]: non-standard residue; d: D form. The star is where a group is joined. Dolaproine = CO[C@@H]([C@@H]1CCCN1)[C@@H](C)C(=O)O; Dil = CC[C@H](C)[C@H](NC)[C@@H](CC(=O)O)OC; X1 = C[C@@H](N*)[C@@H](O)c1ccccc1; NMeV = CN[C@H](C(=O)O)C(C)C

How the values were obtained:
NCI-N87 cells = assay: In vitro cell viability (Cell Titre Glo, 96 h), NCI-N87; type: cell-based, human; details: Table 24
Experimental: NCI-N87 cells, CRL-5822 provided by the American Type Culture Collection (ATCC). Grown in RPM11640+10% FCS.
(§1) In vitro cell viability assays for cancer cells treated with anti ALPP/ALPPL2 drug conjugates Cells were seeded in the appropriate complete growth media, as described above, into white, clear bottom 96 well plates (Costar) and incubated at 37° C., 5% C02 for 24 hours. On the following day, dilution series were set up for each test agent at ×10 working stocks. The dose response X10 stock was e.g.: 10000, 5000, 1000, 500, 100, 50, 10, 5, 1, 0.5 nM etc. 10 μL of the X10 stock solutions were added to the cell plates (90 μl per well) using a multichannel pipette. […] Plates were allowed to sit for a further 10 minutes at room temperature prior to measuring luminescence read-out using a Clariostar plate-reader (BMG). Data was analysed by calculating the average for untreated (vehicle only) control wells and determining the % of control for each treated well. % of control data was then plotted against Log [Treatment] concentration and the IC50 value derived using non-linear regression fitting in GraphPad Prism software. […]
(§2) Cell Titre Glo assays were performed as described in Example 5. Cells were incubated with biparatopic VHH-hFc-drug conjugates and h12F3 drug conjugate at 37° C., 5% CO2 for 96 hours and the % of cell viability determined as a function of dose response. […]

HeLa cells = assay: In vitro cell viability (Cell Titre Glo, 96 h), HeLa; type: cell-based; details: ALPP/ALPPL2 negative cell-line, Table 24
Experimental: HeLa cells, CCL-2 provided by the American Type Culture Collection (ATCC). Grown in EMEM+10% FCS
In vitro cell viability assays for cancer cells treated with anti ALPP/ALPPL2 drug conjugates Cells were seeded in the appropriate complete growth media, as described above, into white, clear bottom 96 well plates (Costar) and incubated at 37° C., 5% C02 for 24 hours. On the following day, dilution series were set up for each test agent at ×10 working stocks. The dose response X10 stock was e.g.: 10000, 5000, 1000, 500, 100, 50, 10, 5, 1, 0.5 nM etc. 10 μL of the X10 stock solutions were added to the cell plates (90 μl per well) using a multichannel pipette. […] 10 μl of vehicle control (PBS) was added to the control wells (columns 11 and 12). Plates were incubated at 37° C., 5% CO2 for 96 hours. Promega Cell Titre Glo reagent was used as per the manufacturer's instructions to assess cell viability. […] Plates were allowed to sit for a further 10 minutes at room temperature prior to measuring luminescence read-out using a Clariostar plate-reader (BMG). Data was analysed by calculating the average for untreated (vehicle only) control wells and determining the % of control for each treated well. % of control data was then plotted against Log [Treatment] concentration and the IC50 value derived using non-linear regression fitting in GraphPad Prism software. […]

CHO-ALPL cells = assay: In vitro cell viability (Cell Titre Glo, 96 h), CHO-ALPL; type: cell-based; details: cell-killing
Experimental: (§3) CHO-ALPP isoform stable transfectants were generated using CHO-K1 cells (CCL-61) provided by the American Type Culture Collection (ATCC). Grown in ATCC-formulated F-12K medium+10% FCS.
(§4) In vitro cell viability assays for cancer cells treated with anti ALPP/ALPPL2 drug conjugates Cells were seeded in the appropriate complete growth media, as described above, into white, clear bottom 96 well plates (Costar) and incubated at 37° C., 5% C02 for 24 hours. On the following day, dilution series were set up for each test agent at ×10 working stocks. The dose response X10 stock was e.g.: 10000, 5000, 1000, 500, 100, 50, 10, 5, 1, 0.5 nM etc. 10 μL of the X10 stock solutions were added to the cell plates (90 μl per well) using a multichannel pipette. […] 10 μl of vehicle control (PBS) was added to the control wells (columns 11 and 12). Plates were incubated at 37° C., 5% CO2 for 96 hours. […] Plates were allowed to sit for a further 10 minutes at room temperature prior to measuring luminescence read-out using a Clariostar plate-reader (BMG). Data was analysed by calculating the average for untreated (vehicle only) control wells and determining the % of control for each treated well. % of control data was then plotted against Log [Treatment] concentration and the IC50 value derived using non-linear regression fitting in GraphPad Prism software. […]

CHO-ALPI cells = assay: In vitro cell viability (Cell Titre Glo, 96 h), CHO-ALPI; type: cell-based; details: cell-killing
Experimental: as §3, §4

CHO-ALPPL2 cells = assay: In vitro cell viability (Cell Titre Glo, 96 h), CHO-ALPPL2; type: cell-based; details: cell-killing
Experimental: as §3
as §1, with “etc.” for “etc. 10 μL of the X10 stock solutions were added to the cell plates (90 μl per well) using a multichannel pipette.”
(§5) Cell Titre Glo assays were performed as described in Example 5. Cells were incubated with VHH-hFc-drug conjugates and h12F3 drug conjugates at 37° C., 5% CO2 for 96 hours and the % of cell viability determined as a function of dose response. […]

MKN1 cells = assay: In vitro cell viability (Cell Titre Glo, 96 h), MKN1; type: cell-based; details: Table 24
Experimental: MKN1 cells (RCB1003, Riken BRC). Ref: Cancer Sci 2006; 97:387-394, were provided by the RIKEN BRC through the National BioResource Project of the MEXT, Japan Grown in RPMI1640+10% FCS.
as §1, with “etc.” for “etc. 10 μL of the X10 stock solutions were added to the cell plates (90 μl per well) using a multichannel pipette.”
as §2

CHO-ALPP cells = assay: In vitro cell viability (Cell Titre Glo, 96 h), CHO-ALPP; type: cell-based; details: cell-killing
Experimental: as §3
as §1, with “etc.” for “etc. 10 μL of the X10 stock solutions were added to the cell plates (90 μl per well) using a multichannel pipette.”
as §5

NCI-H1651 cells = assay: In vitro cell viability (Cell Titre Glo, 96 h), NCI-H1651; type: cell-based; details: Table 24
Experimental: NCI-H1651 cells, CRL-5884 provided by the American Type Culture Collection (ATCC). Grown in ATCC DMEM:F12 medium+10% FCS plus supplements required to make ACL-4 media as recommended by ATCC.
as §1, with “etc.” for “etc. 10 μL of the X10 stock solutions were added to the cell plates (90 μl per well) using a multichannel pipette.”
as §5

Structure (SMILES): CC[C@H](C)[C@@H]([C@@H](CC(=O)N1CCC[C@H]1[C@H](OC)[C@@H](C)C(=O)N[C@H](C)[C@@H](O)c1ccccc1)OC)N(C)C(=O)[C@@H](NC(=O)[C@@H](NC)C(C)C)C(C)C [MMAE, monomethylauristatin E] (H-[NMeV]V[Dil][Dolaproine]-X1)
- % viability remaining, NCI-N87 (NCI-N87 cells): 27.9%
- pIC50 (NCI-N87 cells; cell-killing): 9.52
- % viability remaining, HeLa (HeLa cells): 5.1%
- pIC50 (HeLa cells; cell-killing): 8.74
- pIC50 (CHO-ALPL cells; Table 18, read-out: IC50 @ 96 h, CHO-ALPL): 7.53 and 7.59
- pIC50 (CHO-ALPL cells; Table 23, read-out: IC50 at 96 h, CHO-ALPL): 7.53 and 7.59
- pIC50 (CHO-ALPI cells; Table 18, read-out: IC50 @ 96 h, CHO-ALPI): 7.94 and 7.80
- pIC50 (CHO-ALPI cells; Table 23, read-out: IC50 at 96 h, CHO-ALPI): 7.94 and 7.80
- pIC50 (CHO-ALPPL2 cells; Table 18, read-out: IC50 @ 96 h, CHO-ALPPL2): 7.61 and 7.78
- pIC50 (CHO-ALPPL2 cells; Table 23, read-out: IC50 at 96 h, CHO-ALPPL2): 7.61 and 7.81
- % viability remaining, MKN1 (MKN1 cells): 23.1%
- pIC50 (MKN1 cells; cell-killing): 8.85
- pIC50 (CHO-ALPP cells; Table 18, read-out: IC50 @ 96 h, CHO-ALPP): 7.72 and 7.71
- pIC50 (CHO-ALPP cells; Table 23, read-out: IC50 at 96 h, CHO-ALPP): 7.72 and 7.71
- % viability remaining, NCI-H1651 (NCI-H1651 cells): 28.1%
- pIC50 (NCI-H1651 cells; cell-killing): 9.10
